The target in assay [1] is T1, tnPXR (Tetraodon PXR, GAL4/LBD) (Tetraodon nigroviridis, UniProt H3D8U6).
T1 construct: cloned from liver RNA
Briefly: GAL4/LBD luciferase transactivation. The settings on record: agonist, HepG2-NTCP cells. Type of assay: cell-based.

The target of assay [2] is T2, tnPXR (Tetraodon PXR, GAL4/LBD) (Tetraodon nigroviridis, UniProt H3D8U6).
T2 construct: cloned from liver RNA
T2 sequence (H3D8U6 123-404): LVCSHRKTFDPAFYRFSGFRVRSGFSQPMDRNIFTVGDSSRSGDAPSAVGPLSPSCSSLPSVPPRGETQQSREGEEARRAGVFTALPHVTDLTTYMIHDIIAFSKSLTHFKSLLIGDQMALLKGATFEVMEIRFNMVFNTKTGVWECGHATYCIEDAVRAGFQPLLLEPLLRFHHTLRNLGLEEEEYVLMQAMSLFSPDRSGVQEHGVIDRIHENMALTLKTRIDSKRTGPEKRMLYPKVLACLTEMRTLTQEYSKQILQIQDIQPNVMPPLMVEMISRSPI
Briefly: cell-based. Details: GAL4/LBD chimera luciferase transactivation, normalised to beta-galactosidase, efficacy relative to maximal activator. The settings on record: HepG2-NTCP; relative to 50 uM 5α-androstan-3α-ol; read-out: Efficacy. As to the method:
(§1) The creation of a HepG2 (human liver) cell line stably expressing the human Na^+-taurocholate cotransporter (NTCP; SLC10A1) has been previously reported. HepG2-NTCP cells were grown in modified Eagle's medium-α containing 10% fetal bovine serum and 1% penicillin/streptomycin. The cells were grown at 37°C in 5% CO2. The chicken LMH hepatoma cell line (ATCC, Manassus, VA, USA) was grown in Waymouth's MB 752/1 medium (ATCC) with 10 fetal bovine serum. The Xenopus laevis A6 kidney cell line (ATCC) was grown in 75% NCTC 109 medium, 15% distilled water, and 10% fetal bovine serum at 26°C in 2% CO2. Except as noted above, all media and media supplements for the HepG2 and A6 cell lines were obtained from Invitrogen (Carlsbad, CA, USA). Co-transfections and transactivations assays were performed as previously described. The maximal activators and their concentrations were as follows: chVDR, xlVDR, and tnVDR - 200 nM 1α,25-(OH)2-vitamin D3; tnFXR - 5 μM GW4064; tnPXR - 50 μM 5α-androstan-3α-ol. All comparisons to maximal activators were done within the same microplate. Luciferase data were normalized to the internal β-galactosidase control and represent means ± SD of the assays. The LBD of chicken VDR was cloned from RNA extracted from the LMH cell line. The LBD of Xenopus laevis VDR was cloned from RNA extracted from the A6 cell line. The LBDs of tnFXR, tnVDR, and tnPXR were cloned from total RNA extracted from Tetraodon liver using sequence information from the draft Tetraodon nigriviridis genome. The LBDs of chVDR (amino acid residues 113-451), xlVDR (amino acid residues 91-422), tnFXR (amino acid residues 180-463), tnVDR (amino acid residues 91-426), and tnPXR (amino acid residues 202-483) were inserted into the pM2-GAL4 vector to create GAL4/LBD chimeras.

Assay [3] has as its target T2, tnPXR (Tetraodon PXR, GAL4/LBD). The arrangement: species or system HepG2-NTCP; GAL4/LBD chimera luciferase transactivation, normalised to beta-galactosidase, efficacy relative to maximal activator. The note with it: agonist. How it is done:
as §1

The target in assay [4] is T3, tnVDR (Tetraodon VDR alpha, GAL4/LBD) (Tetraodon nigroviridis, UniProt A0A0A1CGS5).
T3 construct: gene VDRa; cloned from liver RNA
T3 sequence (A0A0A1CGS5 91-420): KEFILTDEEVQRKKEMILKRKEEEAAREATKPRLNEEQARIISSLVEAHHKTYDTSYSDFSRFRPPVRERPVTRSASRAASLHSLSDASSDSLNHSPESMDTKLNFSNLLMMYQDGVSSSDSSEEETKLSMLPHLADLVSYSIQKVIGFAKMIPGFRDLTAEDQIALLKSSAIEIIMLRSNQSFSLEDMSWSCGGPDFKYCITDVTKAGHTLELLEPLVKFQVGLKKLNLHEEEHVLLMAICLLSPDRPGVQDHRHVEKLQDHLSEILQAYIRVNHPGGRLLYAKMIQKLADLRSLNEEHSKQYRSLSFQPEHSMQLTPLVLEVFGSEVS
Kind of assay: cell-based. Details: GAL4/LBD chimera luciferase transactivation, normalised to beta-galactosidase, efficacy relative to maximal activator. The settings on record: HepG2-NTCP; relative to 200 nM 1α,25-(OH)2-vitamin D3; read-out: Efficacy. How it is done:
as §1

Assay [5] concerns T4, tnFXR (Tetraodon FXR, GAL4/LBD).
T4 construct: gene NR1H4; cloned from liver RNA
Briefly: GAL4/LBD luciferase transactivation. It is filed as cell-based, Tetraodon nigroviridis. The note with it: agonist, HepG2-NTCP cells.

Assay [6] has as its target T5, chVDR (chicken VDR, GAL4/LBD) (Gallus gallus, UniProt O42392).
T5 sequence (O42392 113-451): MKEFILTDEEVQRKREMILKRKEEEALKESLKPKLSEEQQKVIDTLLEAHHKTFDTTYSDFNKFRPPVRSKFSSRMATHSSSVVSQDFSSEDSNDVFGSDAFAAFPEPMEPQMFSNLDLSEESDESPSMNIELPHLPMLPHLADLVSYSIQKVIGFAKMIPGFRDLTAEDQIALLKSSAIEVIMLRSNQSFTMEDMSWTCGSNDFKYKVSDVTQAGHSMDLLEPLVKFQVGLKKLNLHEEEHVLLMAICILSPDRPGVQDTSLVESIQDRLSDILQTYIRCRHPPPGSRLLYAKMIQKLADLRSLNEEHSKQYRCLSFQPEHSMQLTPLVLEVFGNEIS
Briefly: cell-based.

[7] abbreviates: reference maximal activator ([…]).

Like-named read-outs stand apart in the source and are kept apart here.

With `C[C@@]12CCC[C@H]1[C@@H]1CC[C@H]3C[C@H](O)CC[C@]3(C)[C@H]1CC2` [5α-androstan-3α-ol], the EC50 – broadly, the concentration that produces a half-maximal response – in assay [1] (setting [7]) was 6.1 ± 0.7 µM.

As for `C[C@H](CCC(=O)O)[C@H]1CC[C@H]2[C@@H]3[C@H](O)C[C@@H]4C[C@H](O)CC[C@]4(C)[C@H]3CC[C@]12C` [CDCA, 3α,7α-dihydroxy-5β-cholan-24-oic acid], the Emax in assay [2] was determined as 38%. The EC50 in assay [3] was determined as 15.6 µM.

Take `CC(=O)[C@H]1CC[C@H]2[C@@H]3CC=C4C[C@@H](O)CC[C@]4(C)[C@H]3CC[C@]12C` [Pregnenolone]: the Emax in assay [2] is 34%. The molecule also registered an EC50 in assay [3] of 3.3 µM.

As for `CC(=O)O[C@@H]1CC[C@@]2(C)[C@H](CC[C@@H]3[C@@H]2CC[C@]2(C)[C@@H]([C@H](C)CCC(=O)O)CC[C@@H]32)C1` [LCA acetate], in assay [4], the Emax was 61%.

`C[C@H](CCC(=O)O)[C@H]1CC[C@H]2[C@@H]3CC[C@@H]4CC(=O)CC[C@]4(C)[C@H]3CC[C@]12C` [3_Keto_LCA]: the Emax in assay [2] is 65%; in assay [4], 17%. Besides, in assay [3], the EC50 is 42.3 µM.

Regarding `C[C@]12CC[C@@H](O)C[C@@H]1CC[C@@H]1[C@@H]2CC[C@]2(C)C=CC[C@@H]12` [5α-Androst-16-en-3α-ol], the Emax in assay [2] worked out at 58%. The EC50 in assay [3] came to 7.4 µM.

`O=S(=O)(c1ccccc1)N(CC(F)(F)F)c1ccc(C(O)(C(F)(F)F)C(F)(F)F)cc1` [T-0901317]: the Emax in assay [2] turned out to be 17%. The molecule also showed a half-maximal effective concentration (EC50) in assay [3] of 7.7 µM.

In turn, `CC(=O)[C@H]1CC[C@H]2[C@@H]3CC[C@@H]4CC(=O)CC[C@]4(C)[C@H]3CC[C@]12C` [5β-pregnane-3,20-dione] had an EC50 in assay [1] of 4 µM.

`CC(C)c1onc(-c2c(Cl)cccc2Cl)c1COc1ccc(/C=C/c2cccc(C(=O)O)c2)c(Cl)c1` [GW4064] registered an EC50 in assay [5] (setting [7]) of 2.8 ± 0.8 µM.

For the molecule `C[C@H](CCC(=O)NCCS(=O)(=O)O)[C@H]1CC[C@H]2[C@@H]3CC[C@@H]4C[C@H](O)CC[C@]4(C)[C@H]3CC[C@]12C` [Tauro-LCA], in assay [2], the Emax amounted to 29%. Besides, the EC50 in assay [3] is 19.1 µM.

With `C[C@H](CCC(=O)O)[C@H]1CC[C@H]2[C@@H]3CC[C@@H]4C[C@H](O)CC[C@]4(C)[C@H]3C[C@H](O)[C@]12C` [Deoxycholic acid], in assay [2], the Emax stood at 33%. For the same molecule, the EC50 in assay [3] stood at 9 µM.

For the molecule `C=C1CC[C@H](O)C/C1=C/C=C1\CCC[C@]2(C)[C@@H]([C@H](C)CCCC(C)(C)O)CC[C@@H]12` [25-Hydroxyvitamin D3], the Emax in assay [4] was 110%.

Consider `C[C@H](CCC(=O)NCCS(=O)(=O)O)[C@H]1CC[C@H]2[C@@H]3[C@H](O)C[C@@H]4C[C@H](O)CC[C@]4(C)[C@H]3CC[C@]12C` [TCDCA, taurochenodeoxycholic acid], for which, in assay [2], the Emax worked out at 59%. Also, the EC50 in assay [1] came to 4.8 ± 0.3 µM.

On to `CC(=O)[C@H]1CC[C@H]2[C@@H]3CC[C@@H]4CC(=O)CC[C@]4(C)[C@H]3CC[C@]12C` [5β-Pregnanedione], for which, in assay [2], the Emax was 73%.

In assay [3], `C[C@H](CCCC(CO)COS(=O)(=O)O)[C@H]1CC[C@H]2[C@@H]3[C@H](O)C[C@H]4C[C@H](O)CC[C@]4(C)[C@H]3C[C@H](O)[C@]12C` (stereo partly drawn) [5α-Cyprinol-27-sulfate] yielded an EC50 of 8.2 µM.

For `CCCCOC(=O)c1ccc(N)cc1` [n-butyl 4-amino benzoate], in assay [2], the Emax was determined as 88%. Besides, the EC50 in assay [1] worked out at 25.6 ± 1.4 µM.

With `C[C@]12CC[C@@H]3c4ccc(O)cc4CC[C@H]3[C@@H]1CC[C@@H]2O` [Estradiol], in assay [2], the Emax was determined as 47%. The molecule also registered an EC50 in assay [3] of 9.6 µM.

As for `C[C@H](CCC(=O)O)[C@H]1CC[C@H]2[C@@H]3CC[C@@H]4C[C@@H](O)CC[C@]4(C)[C@H]3CC[C@]12C` [Iso-LCA], the Emax in assay [4] was found to be 4%.

Turning to `C[C@]12CCC(=O)C=C1CC[C@@H]1[C@@H]2C(=O)C[C@@]2(C)[C@H]1CC[C@]2(O)C(=O)CO` [Cortisone], the Emax in assay [2] came to 19%. The EC50 in assay [3] was determined as 12.2 µM.

Consider `C[C@H](CCC(=O)O)[C@H]1CC[C@H]2[C@@H]3CC[C@@H]4C[C@H](O)CC[C@]4(C)[C@H]3CC[C@]12C` [LCA, 3α-hydroxy-5β-cholan-24-oic acid], for which the Emax in assay [2] amounted to 10%; in assay [4], 12%. Further, the EC50 in assay [5] is 20.8 ± 1 µM; in assay [6] it was 50.3 ± 7.4 µM; in assay [3], 81 µM.

With `CC(=O)[C@H]1CC[C@H]2[C@@H]3CCC4=CC(=O)CC[C@]4(C)[C@H]3CC[C@]12C` [Progesterone], the Emax in assay [2] came out at 33%. This molecule yielded an EC50 in assay [3] of 8.9 µM.

On to `C[C@H](CCC(=O)O)[C@H]1CC[C@H]2[C@@H]3CC[C@H]4CCCC[C@]4(C)[C@H]3CC[C@]12C` [5α-Cholan-24-oic acid], for which, in assay [4], the Emax is 3%.

Take `C[C@]12CC[C@H](OS(=O)(=O)O)CC1=CC[C@@H]1[C@@H]2CC[C@]2(C)C(=O)CC[C@@H]12` [DHEA_sulfate]: in assay [2], the Emax stood at 70%. This molecule also registered an EC50 in assay [3] of 8.5 µM.

Source of the values: PMC3042382, “The evolution of farnesoid X, vitamin D, and pregnane X receptors: insights from the green-spotted pufferfish (Tetraodon nigriviridis) and other non-mammalian species” (BMC Biochemistry, 2011).
